Assay results from paper PMC5933782, “Molecular structures of cdc2-like kinases in complex with a new inhibitor chemotype” (PLoS ONE, 2018).
Where a name gives a salt, the structure may show the parent alone.

Columns and labels:
CDK1/cyclin B = experiment: radiometric protein kinase assay; assay type: biochemical, starfish; details: 15 μmol/L ATP
CDK2/cyclin A = biological target: T1, CDK2/cyclin A (Homo sapiens, UniProt P24941); experiment: radiometric protein kinase assay; assay type: biochemical; details: 15 μmol/L ATP; read-out: IC50 CDK2/cyclinA
T1 construct: made in house

CDK5/p25 = biological target: T2, CDK5/p25 (Homo sapiens, UniProt Q00535); experiment: radiometric protein kinase assay; assay type: biochemical; details: 15 μmol/L ATP
T2 construct: made in house

CK1δ/ε = experiment: radiometric protein kinase assay; assay type: biochemical, porcine; details: 15 μmol/L ATP; read-out: IC50 CK1
DYRK1A = DYRK1A (Homo sapiens, UniProt Q13627); experiment: radiometric protein kinase assay; assay type: biochemical; details: 15 μmol/L ATP; read-out: IC50 DYRK 1A
DYRK1B = DYRK1B (Homo sapiens, UniProt Q9Y463); experiment: radiometric protein kinase assay; assay type: biochemical; details: 15 μmol/L ATP; read-out: IC50 DYRK 1B
DYRK2 = biological target: T3, DYRK2 (Homo sapiens, UniProt Q92630); experiment: radiometric protein kinase assay; assay type: biochemical; details: 15 μmol/L ATP; read-out: IC50 DYRK 2
T3 sequence (Q92630 1-601): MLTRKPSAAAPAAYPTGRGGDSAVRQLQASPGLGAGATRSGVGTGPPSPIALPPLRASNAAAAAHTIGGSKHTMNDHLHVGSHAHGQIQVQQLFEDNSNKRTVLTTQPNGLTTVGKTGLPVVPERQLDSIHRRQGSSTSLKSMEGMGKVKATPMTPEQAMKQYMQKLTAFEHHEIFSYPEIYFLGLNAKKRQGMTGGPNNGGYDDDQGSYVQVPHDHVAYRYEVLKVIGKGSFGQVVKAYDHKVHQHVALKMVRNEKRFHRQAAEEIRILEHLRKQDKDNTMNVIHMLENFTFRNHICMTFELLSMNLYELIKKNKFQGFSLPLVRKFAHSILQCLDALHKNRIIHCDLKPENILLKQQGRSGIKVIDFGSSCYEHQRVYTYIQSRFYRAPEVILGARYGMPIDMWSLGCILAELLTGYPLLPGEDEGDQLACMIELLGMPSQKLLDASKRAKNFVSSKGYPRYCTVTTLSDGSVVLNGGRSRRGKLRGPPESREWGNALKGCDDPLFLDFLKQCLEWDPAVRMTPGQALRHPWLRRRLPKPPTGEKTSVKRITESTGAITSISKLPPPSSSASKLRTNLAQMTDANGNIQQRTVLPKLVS

DYRK3 = biological target: T4, DYRK3 (Homo sapiens, UniProt O43781); experiment: radiometric protein kinase assay; assay type: biochemical; details: 15 μmol/L ATP; read-out: IC50 DYRK 3
T4 sequence (O43781 1-588): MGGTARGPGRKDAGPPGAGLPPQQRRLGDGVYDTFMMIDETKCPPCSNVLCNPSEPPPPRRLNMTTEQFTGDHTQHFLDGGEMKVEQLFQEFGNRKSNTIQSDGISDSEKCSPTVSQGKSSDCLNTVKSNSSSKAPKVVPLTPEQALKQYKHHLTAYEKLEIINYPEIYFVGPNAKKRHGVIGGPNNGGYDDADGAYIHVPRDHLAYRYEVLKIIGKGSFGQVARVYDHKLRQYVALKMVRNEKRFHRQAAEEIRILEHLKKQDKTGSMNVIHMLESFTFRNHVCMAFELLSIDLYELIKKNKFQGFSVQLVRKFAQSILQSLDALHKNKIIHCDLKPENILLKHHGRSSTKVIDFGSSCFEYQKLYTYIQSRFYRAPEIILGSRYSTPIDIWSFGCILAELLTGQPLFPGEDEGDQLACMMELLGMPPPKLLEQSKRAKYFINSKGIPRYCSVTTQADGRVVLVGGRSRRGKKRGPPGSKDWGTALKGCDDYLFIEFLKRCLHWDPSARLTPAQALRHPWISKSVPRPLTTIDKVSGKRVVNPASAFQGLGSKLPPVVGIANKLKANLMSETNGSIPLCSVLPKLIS

GSK-3 = experiment: radiometric protein kinase assay; assay type: biochemical, porcine; details: 15 μmol/L ATP; read-out: IC50 GSK3
CDK9/cyclin T = CDK9/cyclin T (Homo sapiens, UniProt P50750); experiment: radiometric protein kinase assay
CLK1 = CLK1 (Mus musculus, UniProt P22518); experiment: radiometric protein kinase assay
CLK2 = CLK2 (Mus musculus, UniProt O35491); experiment: radiometric protein kinase assay
CLK3 = CLK3 (Mus musculus, UniProt O35492); experiment: radiometric protein kinase assay
Procedure: Buffers. Buffer A: 10 mM MgCl2, 1 mM EGTA, 1 mM DTT, 25 mM Tris-HCl pH 7.5, 50 μg heparin/mL. Buffer C: 60 mM β-glycerophosphate, 15 mM p-nitrophenylphosphate, 25 mM MOPS (pH 7.2), 15 mM EGTA, 15 mM MgCl2, 1 mM DTT, 1 mM sodium vanadate, 1 mM phenylphosphate.
Kinase activities were assayed in buffer A or C at 30°C at a final ATP concentration of 15 μmol/L. Blank values were subtracted and activities were expressed in percent of the maximal activity, i.e. in the absence of inhibitors. Controls were performed with appropriate dilutions of DMSO.
Their kinase activity was assayed in buffer A, with 1 mg histone H1/mL, in the presence of 15 μmol/L [γ-33P] ATP (3,000 Ci/mmol; 10 mCi/mL) in a final volume of 30 μL. After 30 min incubation at 30°C, the reaction was stopped by harvesting onto P81 phosphocellulose supernatant (Whatman) using a FilterMate harvester (Packard) and washing in 1% phosphoric acid. Scintillation fluid was added and the radioactivity measured in a Packard counter.
All data points for construction of dose response curves were recorded in triplicate.

CLK4 = CLK4 (Mus musculus, UniProt O35493); experiment: radiometric protein kinase assay
CLK4, sequence (O35493 whole entry): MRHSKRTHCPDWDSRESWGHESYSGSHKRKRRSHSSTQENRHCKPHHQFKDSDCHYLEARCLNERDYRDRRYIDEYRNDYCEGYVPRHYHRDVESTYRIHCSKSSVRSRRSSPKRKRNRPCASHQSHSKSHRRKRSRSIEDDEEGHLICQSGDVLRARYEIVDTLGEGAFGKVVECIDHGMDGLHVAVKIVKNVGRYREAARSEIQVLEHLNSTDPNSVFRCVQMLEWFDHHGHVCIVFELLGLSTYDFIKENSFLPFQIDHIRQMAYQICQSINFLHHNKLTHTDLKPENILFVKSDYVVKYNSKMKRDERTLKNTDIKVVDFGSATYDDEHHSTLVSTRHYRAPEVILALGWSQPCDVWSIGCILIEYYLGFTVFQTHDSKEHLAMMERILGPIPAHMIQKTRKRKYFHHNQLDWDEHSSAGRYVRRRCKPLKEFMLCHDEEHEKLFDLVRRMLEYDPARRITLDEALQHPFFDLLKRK

CLK1, sequence (P22518 whole entry): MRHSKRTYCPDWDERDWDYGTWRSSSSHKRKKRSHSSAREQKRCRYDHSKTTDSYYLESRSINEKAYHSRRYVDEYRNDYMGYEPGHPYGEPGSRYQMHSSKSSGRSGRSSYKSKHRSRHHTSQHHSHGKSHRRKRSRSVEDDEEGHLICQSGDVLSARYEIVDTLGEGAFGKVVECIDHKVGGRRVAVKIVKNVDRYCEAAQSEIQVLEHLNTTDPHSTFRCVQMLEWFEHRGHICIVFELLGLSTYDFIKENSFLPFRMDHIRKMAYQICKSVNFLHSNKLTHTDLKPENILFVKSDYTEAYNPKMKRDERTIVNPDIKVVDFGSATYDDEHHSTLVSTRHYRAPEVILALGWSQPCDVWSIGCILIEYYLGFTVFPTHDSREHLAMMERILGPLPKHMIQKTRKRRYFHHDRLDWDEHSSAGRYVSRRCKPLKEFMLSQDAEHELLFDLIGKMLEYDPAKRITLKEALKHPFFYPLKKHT
DYRK1B, sequence (Q9Y463 whole entry): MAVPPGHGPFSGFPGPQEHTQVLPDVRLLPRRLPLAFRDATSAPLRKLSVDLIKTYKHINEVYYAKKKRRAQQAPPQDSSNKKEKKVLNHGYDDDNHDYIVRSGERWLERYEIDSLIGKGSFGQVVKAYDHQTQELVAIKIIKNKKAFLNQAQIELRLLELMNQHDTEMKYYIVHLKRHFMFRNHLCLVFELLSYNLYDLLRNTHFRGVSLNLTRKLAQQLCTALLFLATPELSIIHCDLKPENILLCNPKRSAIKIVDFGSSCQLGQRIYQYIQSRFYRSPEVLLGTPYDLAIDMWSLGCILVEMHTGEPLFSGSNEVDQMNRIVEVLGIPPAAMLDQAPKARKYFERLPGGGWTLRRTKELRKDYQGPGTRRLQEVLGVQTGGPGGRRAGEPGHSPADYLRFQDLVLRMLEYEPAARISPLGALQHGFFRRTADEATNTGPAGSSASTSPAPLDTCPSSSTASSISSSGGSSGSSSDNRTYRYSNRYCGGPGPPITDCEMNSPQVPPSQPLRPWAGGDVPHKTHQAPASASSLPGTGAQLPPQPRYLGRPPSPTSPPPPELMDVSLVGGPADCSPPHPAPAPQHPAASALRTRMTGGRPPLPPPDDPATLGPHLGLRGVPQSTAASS
T2 sequence (Q00535 whole entry): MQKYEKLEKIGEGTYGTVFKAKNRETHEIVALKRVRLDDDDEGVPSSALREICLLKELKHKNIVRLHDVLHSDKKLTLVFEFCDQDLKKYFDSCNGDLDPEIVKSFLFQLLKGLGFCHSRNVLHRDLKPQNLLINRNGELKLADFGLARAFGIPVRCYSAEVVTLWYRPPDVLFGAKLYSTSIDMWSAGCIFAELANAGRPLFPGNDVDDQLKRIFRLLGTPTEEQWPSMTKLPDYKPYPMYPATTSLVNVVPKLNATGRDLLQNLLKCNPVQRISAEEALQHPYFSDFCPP
T2 sequence (Q15078 99-307 partner limits assumed): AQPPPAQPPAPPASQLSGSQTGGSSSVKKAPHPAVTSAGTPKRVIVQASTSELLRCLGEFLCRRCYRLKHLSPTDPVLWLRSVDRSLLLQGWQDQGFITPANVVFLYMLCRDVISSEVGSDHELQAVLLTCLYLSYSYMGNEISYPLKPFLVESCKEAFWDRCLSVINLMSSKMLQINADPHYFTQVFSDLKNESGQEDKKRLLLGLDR
CLK2, sequence (O35491 whole entry): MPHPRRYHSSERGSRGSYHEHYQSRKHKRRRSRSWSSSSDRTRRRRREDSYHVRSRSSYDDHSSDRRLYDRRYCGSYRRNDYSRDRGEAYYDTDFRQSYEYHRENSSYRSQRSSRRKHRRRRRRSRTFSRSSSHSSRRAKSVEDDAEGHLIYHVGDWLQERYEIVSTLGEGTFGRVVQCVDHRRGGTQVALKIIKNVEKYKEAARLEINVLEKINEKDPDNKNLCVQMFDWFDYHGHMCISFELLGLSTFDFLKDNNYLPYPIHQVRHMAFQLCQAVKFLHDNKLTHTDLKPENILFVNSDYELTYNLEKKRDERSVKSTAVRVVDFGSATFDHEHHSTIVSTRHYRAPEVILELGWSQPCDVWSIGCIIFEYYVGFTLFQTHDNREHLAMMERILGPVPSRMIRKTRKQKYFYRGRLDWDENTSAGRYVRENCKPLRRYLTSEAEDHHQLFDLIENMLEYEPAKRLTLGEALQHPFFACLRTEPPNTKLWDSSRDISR
CDK9/cyclin T, sequence (P50750 whole entry): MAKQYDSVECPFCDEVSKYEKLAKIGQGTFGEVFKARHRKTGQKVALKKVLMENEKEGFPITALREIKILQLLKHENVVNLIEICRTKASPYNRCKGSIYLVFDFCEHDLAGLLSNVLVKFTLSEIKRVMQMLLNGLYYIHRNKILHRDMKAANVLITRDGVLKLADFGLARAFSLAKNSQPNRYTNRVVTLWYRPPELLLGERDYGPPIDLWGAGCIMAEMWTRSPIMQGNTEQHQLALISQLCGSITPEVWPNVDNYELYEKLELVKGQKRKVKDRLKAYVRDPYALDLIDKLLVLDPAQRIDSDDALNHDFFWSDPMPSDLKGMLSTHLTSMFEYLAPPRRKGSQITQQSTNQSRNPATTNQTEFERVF
CDK9/cyclin T, sequence (O60563 whole entry partner): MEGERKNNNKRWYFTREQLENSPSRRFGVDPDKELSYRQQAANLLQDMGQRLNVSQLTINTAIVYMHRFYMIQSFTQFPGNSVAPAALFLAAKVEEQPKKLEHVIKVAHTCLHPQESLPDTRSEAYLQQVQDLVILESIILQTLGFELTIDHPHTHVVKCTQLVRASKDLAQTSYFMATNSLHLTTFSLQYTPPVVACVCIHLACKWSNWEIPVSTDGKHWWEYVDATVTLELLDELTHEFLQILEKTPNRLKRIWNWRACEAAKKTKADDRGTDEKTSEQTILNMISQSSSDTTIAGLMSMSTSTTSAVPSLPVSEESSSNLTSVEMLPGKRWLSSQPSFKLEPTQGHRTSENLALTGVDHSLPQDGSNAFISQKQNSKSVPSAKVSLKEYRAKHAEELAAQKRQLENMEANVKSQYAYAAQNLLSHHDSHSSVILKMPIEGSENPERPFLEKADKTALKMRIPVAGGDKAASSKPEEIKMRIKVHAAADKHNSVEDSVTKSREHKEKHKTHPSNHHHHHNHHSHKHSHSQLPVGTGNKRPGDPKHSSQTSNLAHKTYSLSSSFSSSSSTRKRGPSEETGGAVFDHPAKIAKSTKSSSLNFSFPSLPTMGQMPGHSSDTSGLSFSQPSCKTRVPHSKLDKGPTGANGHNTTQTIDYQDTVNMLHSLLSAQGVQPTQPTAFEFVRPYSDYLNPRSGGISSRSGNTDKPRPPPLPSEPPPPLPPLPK
CLK3, sequence (O35492 whole entry): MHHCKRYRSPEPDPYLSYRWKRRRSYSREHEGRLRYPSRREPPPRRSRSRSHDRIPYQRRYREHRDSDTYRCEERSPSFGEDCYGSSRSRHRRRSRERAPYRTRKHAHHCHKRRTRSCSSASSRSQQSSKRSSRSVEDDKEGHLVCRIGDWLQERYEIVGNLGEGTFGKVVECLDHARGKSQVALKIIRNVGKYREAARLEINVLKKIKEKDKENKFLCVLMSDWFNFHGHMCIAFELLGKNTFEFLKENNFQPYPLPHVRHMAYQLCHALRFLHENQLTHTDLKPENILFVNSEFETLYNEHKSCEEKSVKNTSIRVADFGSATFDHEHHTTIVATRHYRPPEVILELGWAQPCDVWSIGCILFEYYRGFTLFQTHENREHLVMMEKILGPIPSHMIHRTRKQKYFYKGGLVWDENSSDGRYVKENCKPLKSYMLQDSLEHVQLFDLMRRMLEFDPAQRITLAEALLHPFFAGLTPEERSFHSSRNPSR

Q: For `O=C1NCc2ccc3c(-c4ccccc4)c[nH]c3c21` (as salt: sodium) [8a, 3-Phenyl-6,7-dihydropyrrolo[3,4-g]indol-8(1H)-one], which melting point is on record?
A: The melting point was 294 to 295 °C.

Q: For `O=C1NCc2ccc3c(-c4ccc(Cl)cc4)c[nH]c3c21` (as salt: sodium) [8d, 3-(4-Chlorophenyl)-6,7-dihydropyrrolo[3,4-g]indol-8(1H)-one], which melting point is on record?
A: Its melting point is 255 to 257 °C.

Q: For `O=C1NCc2ccc3c(-c4ccc(Cl)c(Cl)c4)c[nH]c3c21` (as salt: sodium) [8e, 3-(3,4-Dichlorophenyl)-6,7-dihydropyrrolo[3,4-g]indol-8(1H)-one], which melting point is on record?
A: The melting point was 258 to 259 °C.

Q: Which melting point does the source give for `Cc1cccc(-c2c[nH]c3c4c(ccc23)CNC4=O)c1` (as salt: sodium) [8i, 3-(3-Methylphenyl)-6,7-dihydropyrrolo[3,4-g]indol-8(1H)-one] here?
A: The melting point was 231 to 232 °C.

Q: With `Cc1[nH]c2c3c(ccc2c1-c1ccccc1)CNC3=O` (as salt: sodium) [8k, 2-Methyl-3-phenyl-6,7-dihydropyrrolo[3,4-g]indol-8(1H)-one] as the compound, how does the melting point read?
A: The melting point was 245 to 247 °C.

Q: Which results are given for `CN1Cc2ccc3c(-c4ccccc4)cn(C)c3c2C1=O` [15e, 1,7-Dimethyl-3-phenyl-6,7-dihydropyrrolo[3,4-g]indol-8(1H)-one]?
A: IC50 (CDK1/cyclin B): > 10 µM; IC50 (CDK2/cyclin A): > 10 µM; IC50 (CDK5/p25): > 10 µM; IC50 (CK1δ/ε): > 10 µM; IC50 (DYRK1A): > 10 µM; IC50 (DYRK1B): > 10 µM; IC50 (DYRK2): > 10 µM; IC50 (DYRK3): > 10 µM; IC50 (GSK-3): > 10 µM; IC50 (CDK9/cyclin T): > 10 µM; IC50 (CLK1): > 10 µM; IC50 (CLK2): > 10 µM; IC50 (CLK3): > 10 µM; IC50 (CLK4): > 10 µM

Q: What does the source list for `O=C1NCc2c(-c3ccccc3)cc3c(-c4ccccc4)c[nH]c3c21` [17a, 3,5-Diphenyl-6,7-dihydropyrrolo[3,4-g]indol-8(1H)-one]?
A: IC50 (CDK1/cyclin B): > 10 µM; IC50 (CDK2/cyclin A): > 10 µM; IC50 (CDK5/p25): > 10 µM; IC50 (CK1δ/ε): > 10 µM; IC50 (DYRK1A): > 10 µM; IC50 (DYRK1B): > 10 µM; IC50 (DYRK2): > 10 µM; IC50 (DYRK3): > 10 µM; IC50 (GSK-3): > 10 µM; IC50 (CDK9/cyclin T): > 10 µM; IC50 (CLK1): 8.8 µM; IC50 (CLK2): 7.2 µM; IC50 (CLK3): > 10 µM; IC50 (CLK4): 1.3 µM
